Measured values published in patent US20090221642A1, “MUSCARINIC RECEPTOR AGONISTS, COMPOSITIONS, METHODS OF TREATMENT THEREOF, AND PROCESSES FOR PREPARATION THEREOF-176” (AstraZeneca AB, priority 2008, published 2009).

Each compound was assayed against T1, hM1 (human Muscarinic receptor subtype 1) (Homo sapiens, UniProt P11229) (assay: Human M1 calcium mobilization FLIPR assay). Conditions: hM1 expressed in CHO cells, intracellular Ca2+ release, read-out: hM1 EC50.
T1 construct: expressed in transfected cells; host or cells: CHO cells (Chinese hamster ovary cells, ATCC)
T1 sequence (P11229 1-460): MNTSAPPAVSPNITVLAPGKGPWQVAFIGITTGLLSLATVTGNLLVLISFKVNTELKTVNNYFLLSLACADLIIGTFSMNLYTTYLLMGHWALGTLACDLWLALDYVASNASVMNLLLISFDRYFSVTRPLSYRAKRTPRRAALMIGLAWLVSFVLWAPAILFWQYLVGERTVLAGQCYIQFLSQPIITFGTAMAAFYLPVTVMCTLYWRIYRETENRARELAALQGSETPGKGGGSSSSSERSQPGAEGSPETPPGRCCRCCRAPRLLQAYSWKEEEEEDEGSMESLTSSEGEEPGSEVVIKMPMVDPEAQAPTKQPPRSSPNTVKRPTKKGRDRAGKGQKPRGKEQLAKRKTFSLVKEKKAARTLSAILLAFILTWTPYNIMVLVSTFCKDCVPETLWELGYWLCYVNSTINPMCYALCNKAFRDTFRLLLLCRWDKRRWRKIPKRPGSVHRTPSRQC
Assay type: cell-based
Method: Human M1, rat M1, human M3 and human M5 Calcium Mobilization FLIPR™ Assay
The compound activity in the present invention (EC50 or IC50) is measured using a 384 plate-based imaging assay that monitors drug induced intracellular Ca^2+ release in whole cells. Activation of hM1 (human Muscarinic receptor subtype 1, gene bank access NM_000738), rM1 (rat Muscarinic receptor subtype 1, gene bank access NM_080773), hM3 (human Muscarinic receptor subtype 3, gene bank access NM_000740NM_000740) and hM5 (human Muscarinic receptor subtype 5, gene bank access NM_0121258), receptors expressed in CHO cells (Chinese hamster ovary cells, ATCC) is quantified in a Molecular Devices FLIPR II™ instrument as an increase in fluorescent signal. Inhibition of hM3 and hM5 by compounds is determined by the decrease in fluorescent signal in response to 2 nM acetylcholine activation.
Prior to experiment, the cell culture medium is removed from the plates by inversion. […] Plates are incubated at 37° C. for 60 minutes prior to start the experiment. The incubation is terminated by washing the cells four times in assay buffer, leaving a residual 25 μl buffer per well. Cell plates are then transferred to the FLIPR, ready for compound additions.
The day of experiment, acetylcholine and compounds are diluted in assay buffer in three-fold concentration range (10 points serial dilution) for addition by FLIPR instrument. For all calcium assays, a baseline reading is taken for 10 seconds followed by the addition of 12.5 μl of compounds, resulting in a total well volume of 37.5 μl. Data is collected every second for 60 pictures and then every 6 seconds for 20 pictures prior to the addition of agonist. For hM3 and hM5, before agonist addition, a second baseline reading is taken for 10 seconds followed by the addition of 12.5 μl of agonist or buffer, producing a final volume of 50 μl. After agonist stimulation, the FLIPR continues to collect data every second for 60 pictures and then every 6 seconds for 20 pictures. The fluorescence emission is read using filter 1 (emission 510-570 nm) by the FLIPR on board CCD camera.
Calcium mobilization output data are calculated as the maximal relative fluorescence unit (RFU) minus the minimal value for both compound and agonist reading frame (except for hM1 and rM1 using only the maximal RFU). Data are analyzed using sigmoidal fits of a non-linear curve-fitting program (XLfit version 4.2.2 Excel add-in version 4.2.2 build 18 math 1Q version 2.1.2 build 18). All pEC50 and plC50 values are reported as arithmetic means ±standard error of mean of ‘n’ independent experiments.
`CCOC(=O)N1CCC(C)(N2CCC(N3C(=O)Cc4c3cc(F)cc4C(C)(C)C)CC2)C1` (stereo not drawn) [Example 85, ethyl 3-(4-(4-tert-butyl-6-fluoro-2-oxoindolin-1-yl)piperidin-1-yl)-3-methylpyrrolidine-1-carboxylate] showed an EC50 of 1470 nM. Compound `COC(=O)N1CCC(C)(N2CCC(N3C(=O)Cc4c3cc(C)cc4C(C)(C)C)CC2)C1` (stereo not drawn) [Example 86, methyl 3-(4-(4-tert-butyl-6-methyl-2-oxoindolin-1-yl)piperidin-1-yl)-3-methylpyrrolidine-1-carboxylate] has an EC50 of 1420 nM. With `CCOC(=O)N1CCC(C)(N2CCC(N3C(=O)C4(CC4)c4ccc(F)cc43)CC2)C1` (stereo not drawn) [Example 87, ethyl 3-(4-(6′-fluoro-2′-oxospiro[cyclopropane-1,3′-indoline]-1′-yl)piperidin-1-yl)-3-methylpyrrolidine-1-carboxylate] the EC50 was 125 nM.
